This passage reports GI50 and TGI results from PubChem BioAssay (NCI).

Structures are written as SMILES.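 How tested: cells in 96-well plates exposed to compound for 48 hours at five concentrations. Abbreviation: GI50, concentration required for 50% inhibition of growth. TGI: total growth inhibition.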

Test systems include HL-60(TB) leukemia; A498 renal; SW-620 colon; IGROV1 ovarian; SK-OV-3 ovarian; COLO 205 colon; OVCAR-8 ovarian; HT29 colon; DU-145 prostate; SNB-75 CNS.
Holding throughout (assay): NCI-60 cell line screen, 48 h

Take `COc1cccc2c1C(=O)c1c(O)c3c(c(O)c1C2=O)C[C@@](O)(/C(CO)=N/NC(=O)CCCCCN1C(=O)C=CC1=O)C[C@@H]3O[C@H]1C[C@H](N)[C@H](O)[C@H](C)O1`: the GI50 with HL-60(TB) leukemia is 0.8 µM; with A498 renal, 0.361 µM; in the test with SW-620 colon, 0.357 µM; with IGROV1 ovarian, 1.04 µM; with SK-OV-3 ovarian, 1.63 µM; in the test with COLO 205 colon, 0.8 µM. In addition, the GI50 is 1.14 µM in the test on OVCAR-8 ovarian, 1.37 µM in the test on HT29 colon, 0.554 µM in the test on DU-145 prostate and 0.368 µM in the test on SNB-75 CNS. The TGI is 15.5 µM in the test on HL-60(TB) leukemia; 2.15 µM in the test on A498 renal; greater than 49 µM with SW-620 colon; greater than 100 µM in the test on IGROV1 ovarian; 36.8 µM in the test with SK-OV-3 ovarian; 10.2 µM with COLO 205 colon. Besides, the TGI in the test on OVCAR-8 ovarian was found to be 97.4 µM; in the test on HT29 colon, 13.2 µM; with DU-145 prostate, 38.6 µM; in the test on SNB-75 CNS, 2.99 µM.
In the case of `C=C1c2nc3ccccc3n2C=C(c2cccc(Cl)c2)N1Cc1ccc(OC)cc1`, the GI50 is 0.193 µM in the test on HL-60(TB) leukemia; 9.33 µM in the test on A498 renal; 0.441 µM in the test with SW-620 colon; 0.471 µM with IGROV1 ovarian; 2.88 µM in the test on SK-OV-3 ovarian; 9.14 µM with COLO 205 colon. The GI50 in the test with OVCAR-8 ovarian was 2.43 µM; with HT29 colon it was 7.15 µM; with DU-145 prostate, 1.8 µM; in the test with SNB-75 CNS it was 0.452 µM. Also, the TGI with HL-60(TB) leukemia was 0.639 µM; in the test on A498 renal, 60.4 µM; in the test on SW-620 colon, greater than 78.2 µM; in the test with IGROV1 ovarian, 15.8 µM; in the test with SK-OV-3 ovarian, greater than 100 µM; with COLO 205 colon it was 35.7 µM. The TGI with OVCAR-8 ovarian was greater than 57.3 µM; with HT29 colon, 53.2 µM; with DU-145 prostate, greater than 53.5 µM; with SNB-75 CNS, greater than 100 µM.
Regarding `NS(=O)(=O)c1ccc(N=Nc2ccc[nH]c2=O)cc1`, the TGI in the test with HL-60(TB) leukemia, in the test with A498 renal, in the test with SW-620 colon, in the test with IGROV1 ovarian, in the test on SK-OV-3 ovarian and with COLO 205 colon was greater than 100 µM in each case. Besides, the TGI with OVCAR-8 ovarian, in the test on HT29 colon, with DU-145 prostate and with SNB-75 CNS was greater than 100 µM throughout.
As to `CC(=Nc1ccc(N(C)C)cc1)c1ccccc1`, the TGI with HL-60(TB) leukemia was 43.9 µM; in the test with A498 renal it was greater than 100 µM; in the test on SW-620 colon, 39.7 µM; with IGROV1 ovarian, 75.3 µM; with SK-OV-3 ovarian it was greater than 100 µM; in the test on COLO 205 colon, 34.9 µM. Further, the TGI is greater than 100 µM in the test with OVCAR-8 ovarian, 73.4 µM in the test on HT29 colon, greater than 100 µM in the test with DU-145 prostate and 77.4 µM in the test on SNB-75 CNS.
As for `CCc1nc(C)cn1C(=O)OCc1nc2nc(Cl)nc(N3CCOCC3)c2[nH]1`, the GI50 in the test on HL-60(TB) leukemia is 0.451 µM; with A498 renal it was 1.92 µM; in the test with SW-620 colon, 1.11 µM; with IGROV1 ovarian, 0.501 µM; with SK-OV-3 ovarian it was 4.04 µM; in the test on COLO 205 colon, 1.37 µM. The GI50 in the test on OVCAR-8 ovarian was 1.47 µM; in the test with HT29 colon it was 1 µM; in the test on DU-145 prostate it was 1.22 µM; in the test on SNB-75 CNS, 0.579 µM. The TGI was determined as 3.15 µM in the test on HL-60(TB) leukemia; 3.54 µM in the test with A498 renal; 2.69 µM in the test with SW-620 colon; 1.86 µM in the test on IGROV1 ovarian; 15.6 µM in the test on SK-OV-3 ovarian; 2.94 µM in the test on COLO 205 colon. Moreover, the TGI in the test with OVCAR-8 ovarian was determined as 3.61 µM; with HT29 colon it was 4.04 µM; with DU-145 prostate it was 2.52 µM; in the test on SNB-75 CNS, 2.06 µM.
On to `O=S(=O)(NC1=NCCN1C(=S)SN1CCn2c1nsc2=S)c1ccc(Oc2ccccc2)cc1`, for which the GI50 is 2.78 µM in the test with HL-60(TB) leukemia; 34.2 µM in the test on A498 renal; 67 µM with SW-620 colon; 31.8 µM in the test on IGROV1 ovarian; greater than 100 µM with SK-OV-3 ovarian; greater than 100 µM in the test on COLO 205 colon. The GI50 with OVCAR-8 ovarian was greater than 100 µM; in the test with HT29 colon, 54.7 µM; with DU-145 prostate, 31.7 µM; in the test with SNB-75 CNS, 39.5 µM. For the same compound, the TGI with HL-60(TB) leukemia was 11.3 µM; in the test on A498 renal it was 97 µM; with SW-620 colon, greater than 100 µM; in the test with IGROV1 ovarian it was greater than 100 µM; in the test with SK-OV-3 ovarian it was greater than 100 µM; in the test on COLO 205 colon, greater than 100 µM. In addition, the TGI with OVCAR-8 ovarian, with HT29 colon, in the test with DU-145 prostate and with SNB-75 CNS was greater than 100 µM each time.
On to `COc1cc2c(cc1OC)C(C(CCCCCC(CCC(C)C)C1NCCc3cc(OC)c(OC)cc31)CCC(C)C)NCC2` (stereo not given), for which the GI50 in the test with HL-60(TB) leukemia was 0.878 µM; in the test on A498 renal it was 1.51 µM; in the test with SW-620 colon it was 0.193 µM; in the test on IGROV1 ovarian, 2.08 µM; in the test with SK-OV-3 ovarian, 1.58 µM; in the test with COLO 205 colon it was 0.225 µM. Besides, the GI50 in the test with OVCAR-8 ovarian is 1.01 µM; in the test with HT29 colon, 0.328 µM; in the test on DU-145 prostate it was 1.19 µM; in the test on SNB-75 CNS, 1.62 µM. For the same compound, the TGI in the test with HL-60(TB) leukemia came to 2.55 µM; in the test with A498 renal it was 2.99 µM; with SW-620 colon it was 0.387 µM; with IGROV1 ovarian, 3.94 µM; with SK-OV-3 ovarian, 2.99 µM; in the test with COLO 205 colon, 0.464 µM. In addition, the TGI stood at 2.52 µM in the test with OVCAR-8 ovarian, 0.874 µM in the test on HT29 colon, 2.55 µM with DU-145 prostate and 3.05 µM in the test with SNB-75 CNS.
With `CC1=CC(=O)N(c2cccc3c(N4C(=O)C=C(C)C4=O)cccc23)C1=O`, the GI50 in the test with HL-60(TB) leukemia was 2.38 µM; with A498 renal, 26.6 µM; in the test with SW-620 colon, 0.99 µM; with IGROV1 ovarian, 3.55 µM; in the test on SK-OV-3 ovarian, 53 µM; in the test with COLO 205 colon it was 0.988 µM. Besides, the GI50 with OVCAR-8 ovarian is 3.36 µM; in the test with HT29 colon, 2.73 µM; in the test on DU-145 prostate it was 4.08 µM; in the test on SNB-75 CNS it was 28.1 µM. Moreover, the TGI with HL-60(TB) leukemia was 8.8 µM; with A498 renal it was 56.5 µM; in the test on SW-620 colon, 2.93 µM; with IGROV1 ovarian, 16.2 µM; with SK-OV-3 ovarian it was greater than 100 µM; in the test with COLO 205 colon it was 2.65 µM. Also, the TGI in the test with OVCAR-8 ovarian was 16.5 µM; with HT29 colon, 8.1 µM; with DU-145 prostate, 14.4 µM; in the test on SNB-75 CNS, greater than 100 µM.
